Earlier results, collected in US9877930B2, “Topical ubiquinol oral supplement compositions with amorphous calcium phosphate” (Premier Dental Products Company, priority 2012, dated 2018).

Assays:
adult periodontitis = conditions: topical once weekly via syringe for six weeks, with mechanical debridement; sites that bled at day 0
[1] = 150 mg per day in a softgel, orally, within 28 days
[2] = test system: human monocytic celline THP-1; conditions: LPS-stimulated THP-1
periodontal disease = conditions: 150 mg capsule/day for two months
[3] = not given; remark: listed apart in the source

SMILES	bleeding on probing at treated sites (adult periodontitis)	peak blood values [1] [µg/mL]	effect on inflammatory cytokines and chemokines in vitro [2]	effect on oral environment for periodontal disease (periodontal disease)	time required to reach peak concentration (absorption from the gastrointestinal tract)	time to steady-state concentrations (oral treatment)	water solubility [3]
COC1=C(OC)C(=O)C(C/C=C(\C)CC/C=C(\C)CC/C=C(\C)CC/C=C(\C)CC/C=C(\C)CC/C=C(\C)CC/C=C(\C)CC/C=C(\C)CC/C=C(\C)CCC=C(C)C)=C(C)C1=O [CoQ10, ubiquinone]	no bleeding at six weeks	–	–	–	–	–	–
COc1c(O)c(C)c(C/C=C(\C)CC/C=C(\C)CC/C=C(\C)CC/C=C(\C)CC/C=C(\C)CC/C=C(\C)CC/C=C(\C)CC/C=C(\C)CC/C=C(\C)CCC=C(C)C)c(O)c1OC [UBIQUINOL]	–	3.84	anti-inflammatory effects	effective in improving oral environment for periodontal disease	approximately 6 hours	within two weeks	less than 0.1 mg/ml
